According to paper PMC12111771, “Structural Characterization and Bioactivity Evaluation of Selenium-Modified Dihydromyricetin from Vine Tea” (Foods, 2025):
In brackets after ≈: the same amount, converted by molar mass.

Key:
α-glucosidase (α-GLU) = assay: PNPG hydrolysis assay with commercial enzyme, absorbance at […] nm; type: biochemical
α-amylase (α-AMY) = assay: starch hydrolysis DNS assay with commercial enzyme, absorbance at […] nm; type: biochemical

## O=C1c2c(O)cc(O)cc2O[C@H](c2cc(O)c(O)c(O)c2)[C@H]1O [DHM, Dihydromyricetin]
α-glucosidase (α-GLU)
  IC50: 96.12 µg/mL (≈ 0.3 mM)
α-amylase (α-AMY)
  IC50: 4614 µg/mL (≈ 14.4 mM)
